Laboratory results as given in the Deep4Chem optical property database.
Blank lines part the entries; values can stand above or below the compound they belong to.

Experiment: solvent given as SMILES

Structure (SMILES): COc1ccc(-c2csc(-c3ccncc3)n2)cc1
- absorption maximum (in CC#N): 394 nm
- absorption maximum (in CCO): 340 nm
- absorption maximum (in CN(C)C=O): 340 nm
- absorption maximum (in CS(C)=O): 341 nm
- absorption maximum (in Cc1ccccc1): 340 nm
- absorption maximum (in ClCCl): 401 nm

Structure (SMILES): CCn1c2ccccc2c2cc(C#Cc3cc(C#Cc4ccc5c(c4)c4ccccc4n5CC)nc(OC)n3)ccc21
- absorption maximum (in C1CCOC1): 388 nm
- absorption maximum (in CCOC(C)=O): 384 nm
- absorption maximum (in CN(C)C=O): 392 nm
- absorption maximum (in Cc1ccccc1): 389 nm
- absorption maximum (in ClCCl): 390 nm

Structure (SMILES): Fc1c(-c2nnc(-c3ccccc3)o2)c(-n2c3ccccc3c3ccccc32)c(F)c(-n2c3ccccc3c3ccccc32)c1-n1c2ccccc2c2ccccc21
- absorption maximum (in Cc1ccccc1): 361 nm

- absorption maximum (in CC#N): 343 nm
- absorption maximum (in CCO): 357 nm
Structure (SMILES): Cc1cc(=O)oc2cc3cc(O)ccc3cc12

Structure (SMILES): CCCCCCC(CCCCCC)N1C(=O)c2cccc3c(-c4ccc([Si](C)(C)C)cc4)ccc(c23)C1=O
- absorption maximum (in CCCCCC): 343.4 nm
- absorption maximum (in CCCCCCCCCCCCCC): 344.4 nm
- absorption maximum (in CCCCCCCCCCCO): 355 nm
- absorption maximum (in CCCCO): 357.6 nm
- absorption maximum (in CN(C)C=O): 356 nm
- absorption maximum (in Cc1ccccc1): 353.4 nm
- absorption maximum (in ClC(Cl)Cl): 356 nm

- absorption maximum (in CC#N): 391 nm
Structure (SMILES): Cn1c(-c2ccc(-c3nc(-c4ccccc4)c(-c4ccccc4)n3C)s2)nc(-c2ccccc2)c1-c1ccccc1

- absorption maximum (in CO): 332.42 nm
Structure (SMILES): CCC1(CC)c2cc(-c3ccc(-c4ccc5c(c4)C(CC)(CC)c4cc(C(C)(C)C)ccc4-5)cc3)ccc2-c2ccc(C(C)(C)C)cc21

- absorption maximum (in ClC(Cl)Cl): 323.56 nm
Structure (SMILES): Fc1ccc(-c2cc3c4c(c2)CCc2cc(-c5ccc(F)cc5)cc(c2-4)CC3)cc1

Structure (SMILES): O=Cc1ccc(C2=C3C=c4c(oc5ccccc45)=[N+]3[B-](F)(F)n3c2cc2c4ccccc4oc23)cc1
- absorption maximum (in C1CCCCC1): 592.5 nm
- absorption maximum (in C1CCOC1): 589 nm
- absorption maximum (in CC#N): 585.5 nm
- absorption maximum (in CCOC(C)=O): 587 nm
- absorption maximum (in CN(C)C=O): 589 nm
- absorption maximum (in CO): 583 nm
- absorption maximum (in Cc1ccccc1): 597 nm
- absorption maximum (in ClCCl): 593.5 nm

Structure (SMILES): C(=C\c1nc(/C=C/c2ccc(-n3c4ccccc4c4ccccc43)cc2)nc(/C=C/c2ccc(-n3c4ccccc4c4ccccc43)cc2)n1)/c1ccc(-n2c3ccccc3c3ccccc32)cc1
- absorption maximum (in C1CCOC1): 381 nm
- absorption maximum (in CC#N): 376 nm
- absorption maximum (in Cc1ccccc1): 389 nm
- absorption maximum (in ClCCl): 383 nm

- absorption maximum (in C1CCOC1): 464 nm
- absorption maximum (in CC#N): 468 nm
- absorption maximum (in CCO): 460 nm
- absorption maximum (in CO): 461 nm
- absorption maximum (in ClCCl): 468 nm
Structure (SMILES): O=C1C2=C(O[B-](F)(F)[n+]3c2ccc2ccccc23)c2ccc(N3CCOCC3)c3cccc1c23

Structure (SMILES): C(=C\c1ccc(/C=C/c2ccc(N(c3ccccc3)c3ccccc3)cc2)c2nsnc12)/c1ccc(N(c2ccccc2)c2ccccc2)cc1
- absorption maximum (in C1CCOC1): 512 nm
- absorption maximum (in CCOC(C)=O): 502 nm
- absorption maximum (in CN(C)C=O): 513 nm
- absorption maximum (in Cc1ccccc1): 521 nm
- absorption maximum (in ClC(Cl)Cl): 514 nm
- absorption maximum (in ClCCl): 512 nm

Structure (SMILES): CC1(C)c2ccccc2N(c2ccc(-c3nc4c(C#N)ccc(C#N)c4nc3-c3ccc(N4c5ccccc5C(C)(C)c5ccccc54)cc3)cc2)c2ccccc21
- absorption maximum (in Cc1ccccc1): 479 nm

- absorption maximum (in C1CCCCC1): 500.5 nm
- absorption maximum (in CC#N): 496.5 nm
- absorption maximum (in CCO): 497.5 nm
- absorption maximum (in CCOC(C)=O): 497 nm
- absorption maximum (in CO): 496 nm
- absorption maximum (in OCC(F)(F)F): 493 nm
Structure (SMILES): Cc1ccc(C2=C3C=CC=[N+]3[B-](F)(F)n3cccc32)cc1

- absorption maximum (in ClCCl): 666 nm
Structure (SMILES): COc1ccc(C#Cc2c3cc4ccccc4cc3c(C#Cc3ccc(OC)cc3)c3cc4ccccc4cc23)cc1

- absorption maximum (in ClCCl): 353 nm
Structure (SMILES): C(S/C=C/c1ccc(-c2ccc(/C=C/SC=C3CCCCCC3)cc2)cc1)=C1CCCCCC1

- absorption maximum (in ClC(Cl)Cl): 579 nm
Structure (SMILES): Cc1cc(C)c(C2=C3C=CC(c4ccc5c(ccc6ccccc65)c4)=[N+]3[B-](F)(F)n3c2ccc3-c2ccc3c(ccc4ccccc43)c2)c(C)c1
